Measured values from ChEMBL document CHEMBL1139124, “Oxazolidinones as novel human CCR8 antagonists” (Bioorg Med Chem Lett, 2007).
Active and inactive are the calls of the source. No cut-off for these calls is given here.

How the values were obtained:
[1] = target: C-C chemokine receptor type 8 (Homo sapiens, UniProt P51685); test: Antagonist activity at human recombinant CCR8 expressed in RBL cells assessed as inhibition of I-309-induced intracellular calcium mobilization by FLIPR assay; type: functional, cell-based
Chain of C-C chemokine receptor type 8 (P51685 whole entry): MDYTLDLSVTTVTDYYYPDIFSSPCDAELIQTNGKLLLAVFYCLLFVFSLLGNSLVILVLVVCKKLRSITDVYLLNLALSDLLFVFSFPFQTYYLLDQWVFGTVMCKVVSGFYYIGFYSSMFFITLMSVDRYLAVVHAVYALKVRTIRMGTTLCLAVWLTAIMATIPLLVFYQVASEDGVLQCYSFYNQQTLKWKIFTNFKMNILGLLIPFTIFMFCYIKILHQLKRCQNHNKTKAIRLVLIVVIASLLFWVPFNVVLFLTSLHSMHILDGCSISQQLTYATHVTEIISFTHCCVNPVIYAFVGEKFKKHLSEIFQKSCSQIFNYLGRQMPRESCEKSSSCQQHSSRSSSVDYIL

[2] = target: Voltage-gated inwardly rectifying potassium channel KCNH2 (Homo sapiens, UniProt Q12809); test: Inhibition of hERG; type: toxicity
Chain of Voltage-gated inwardly rectifying potassium channel KCNH2 (Q12809 whole entry): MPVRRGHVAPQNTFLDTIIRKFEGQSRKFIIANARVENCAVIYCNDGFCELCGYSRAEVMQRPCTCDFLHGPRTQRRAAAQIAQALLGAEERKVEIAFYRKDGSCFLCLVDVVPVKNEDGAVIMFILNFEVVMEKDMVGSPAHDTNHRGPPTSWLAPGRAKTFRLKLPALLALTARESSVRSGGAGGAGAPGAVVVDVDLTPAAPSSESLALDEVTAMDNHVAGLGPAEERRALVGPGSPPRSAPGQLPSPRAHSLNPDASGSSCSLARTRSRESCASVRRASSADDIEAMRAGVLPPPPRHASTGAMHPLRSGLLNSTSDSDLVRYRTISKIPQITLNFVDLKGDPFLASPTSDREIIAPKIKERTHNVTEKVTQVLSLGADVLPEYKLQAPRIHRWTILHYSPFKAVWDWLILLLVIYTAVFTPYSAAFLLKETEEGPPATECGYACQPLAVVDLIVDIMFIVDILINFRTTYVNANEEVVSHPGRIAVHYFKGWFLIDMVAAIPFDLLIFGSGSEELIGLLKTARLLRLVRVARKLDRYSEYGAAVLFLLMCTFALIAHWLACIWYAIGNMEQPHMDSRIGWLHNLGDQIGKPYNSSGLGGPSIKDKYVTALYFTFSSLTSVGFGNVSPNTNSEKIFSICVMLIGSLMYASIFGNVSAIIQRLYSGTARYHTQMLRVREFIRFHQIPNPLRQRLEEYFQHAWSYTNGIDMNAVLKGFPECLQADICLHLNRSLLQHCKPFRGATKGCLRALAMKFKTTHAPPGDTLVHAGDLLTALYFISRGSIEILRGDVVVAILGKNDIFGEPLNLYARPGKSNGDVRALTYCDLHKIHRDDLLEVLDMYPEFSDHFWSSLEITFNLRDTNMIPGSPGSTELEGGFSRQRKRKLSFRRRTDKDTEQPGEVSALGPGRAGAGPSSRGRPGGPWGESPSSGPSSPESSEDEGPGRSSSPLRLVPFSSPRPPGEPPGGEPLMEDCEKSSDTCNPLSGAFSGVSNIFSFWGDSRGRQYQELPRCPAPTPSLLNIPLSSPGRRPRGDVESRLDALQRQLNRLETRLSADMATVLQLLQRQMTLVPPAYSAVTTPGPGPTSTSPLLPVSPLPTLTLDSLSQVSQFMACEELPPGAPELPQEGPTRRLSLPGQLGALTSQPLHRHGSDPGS

Homo sapiens = species on record: Homo sapiens; test: Selectivity for hERG over CCR8
Rattus norvegicus = species on record: Rattus norvegicus; test: Antagonist activity at rat CCR8 by FLIPR assay; type: functional
[3] = Half life in mouse at 1 mg/kg, iv or 2 mg/kg, po; type: ADME, organism-based; conditions: in vivo
[4] = Volume of distribution at steady state in mouse at 1 mg/kg, iv or 2 mg/kg, po; type: ADME, organism-based; conditions: in vivo, read-out: Vdss
[5] = target: T1, C-C chemokine receptor type 8 (Mus musculus) (UniProt P56484); test: Antagonist activity at mouse CCR8 by FLIPR assay; type: functional
T1 sequence (whole entry): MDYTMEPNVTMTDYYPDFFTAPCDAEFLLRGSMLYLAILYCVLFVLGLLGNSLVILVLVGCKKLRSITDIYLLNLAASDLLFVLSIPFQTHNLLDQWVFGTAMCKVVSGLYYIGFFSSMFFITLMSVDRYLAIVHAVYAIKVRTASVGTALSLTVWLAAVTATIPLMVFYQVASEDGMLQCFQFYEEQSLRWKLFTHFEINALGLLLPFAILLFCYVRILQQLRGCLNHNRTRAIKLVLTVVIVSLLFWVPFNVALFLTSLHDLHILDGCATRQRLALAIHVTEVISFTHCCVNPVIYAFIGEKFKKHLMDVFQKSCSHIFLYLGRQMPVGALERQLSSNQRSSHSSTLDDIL

[6] = Oral bioavailability in mouse at 2 mg/kg; type: ADME, organism-based; conditions: in vivo
Cavia porcellus = species on record: Cavia porcellus; test: Antagonist activity at guinea pig CCR8 by FLIPR assay; type: functional
[7] = Clearance in mouse blood at 1 mg/kg, iv or 2 mg/kg, po; type: ADME, organism-based
Liver microsomes [8] = test: Intrinsic clearance in human liver microsome; type: ADME
Liver microsomes [9] = test: Intrinsic clearance in rat liver microsome; type: ADME

Compound	IC50 [1]	also measured
COc1ccc2nccc(C3CN(C4CCN(Cc5cc6ccccc6[nH]5)CC4)C(=O)O3)c2c1 (centres undefined)	25.1 nM	
COc1ccc(CN2CCC(N3CC(c4ccnc5ccc(OC)cc45)OC3=O)CC2)cc1 (centres undefined)	1260 nM	
COc1ccc2nccc(C3CN(C4CCN(S(=O)(=O)c5ccc(Cl)c(Cl)c5)CC4)C(=O)O3)c2c1 (centres undefined)	> 50100 nM	
COc1ccc2nccc(C3CN(C4CCN(CCCc5ccccc5)CC4)C(=O)O3)c2c1 (centres undefined)	251 nM	
COc1ccc2nccc(C3CN(C4CCN(Cc5c[nH]c6ccccc56)CC4)C(=O)O3)c2c1 (centres undefined)	> 50100 nM	
COc1ccc2nccc(C3CN(C4CCN(Cc5ccc(Cl)c(Cl)c5)CC4)C(=O)O3)c2c1 (centres undefined)	126 nM	
COc1ccc2nccc(C3CN(CC4CCN(Cc5cc6ccccc6[nH]5)CC4)C(=O)O3)c2c1 (centres undefined)	> 50100 nM	
CCCCCCN1CCC(N2CC(c3ccnc4ccc(OC)cc34)OC2=O)CC1 (centres undefined)	501 nM	
COc1ccc2nccc(C3CN(C4CCN(Cc5cc6ccccc6[nH]5)C4)C(=O)O3)c2c1 (centres undefined)	> 50100 nM	
COc1ccc2nccc(C3CN(C4CCN(Cc5ccc(C)c(C)c5)CC4)C(=O)O3)c2c1 (centres undefined)	39.8 nM	IC50 [2]: 6310 nM; Selectivity ratio (Homo sapiens): 158
COc1ccc2nccc(C3CN(C4CCN(Cc5ccc(-c6ccccc6)cc5)CC4)C(=O)O3)c2c1 (centres undefined)	> 50100 nM	
O=C1OC(c2ccc3ccccc3n2)CN1C1CCN(Cc2cc3ccccc3[nH]2)CC1 (centres undefined)	> 50100 nM	
COc1ccc2nccc([C@@H]3CN(C4CCN(Cc5cc6ccccc6[nH]5)CC4)C(=O)O3)c2c1	20 nM	Activity (Rattus norvegicus): inactive; half-life [3]: 1 h; Vd [4]: 2.4 L/kg; Activity [5]: inactive; bioavailability [6]: 18%; Activity (Cavia porcellus): inactive; clearance [7]: 38 mL/min/kg; IC50 [2]: 1580 nM; CL (Liver microsomes [8]): 7 mL/min/g; Selectivity ratio (Homo sapiens): 79; CL (Liver microsomes [9]): 7 mL/min/g
O=C1OC(c2ccnc3ccccc23)CN1C1CCN(Cc2cc3ccccc3[nH]2)CC1 (centres undefined)	1000 nM	
COc1ccc2nccc(C3CN(C4CCN(C(=O)c5ccc(Cl)c(Cl)c5)CC4)C(=O)O3)c2c1 (centres undefined)	6310 nM	
COc1ccc2nccc(C3CN(C4CCN(CC5CCCCC5)CC4)C(=O)O3)c2c1 (centres undefined)	7940 nM	
COc1ccc2nccc(C3CN(C4CCN(Cc5ccc(Cl)cc5)CC4)C(=O)O3)c2c1 (centres undefined)	631 nM	
COc1ccc2nccc(C3CN(C4CCN(Cc5cc6ccccc6o5)CC4)C(=O)O3)c2c1 (centres undefined)	1260 nM	

Compound	IC50 [1]	also measured
COc1ccc2nccc(C3CN(CC4CCCN(Cc5cc6ccccc6[nH]5)C4)C(=O)O3)c2c1 (centres undefined)	> 50100 nM	
COc1ccc2nccc(C3CN(C4CCN(Cc5ccccc5)CC4)C(=O)O3)c2c1 (centres undefined)	12600 nM	
COc1ccc2nccc(C3CN(C4CCN(Cc5cccc(Cl)c5)CC4)C(=O)O3)c2c1 (centres undefined)	6310 nM	
COc1ccc2nccc(C3CN(C4CCN(Cc5cc6ccccc6s5)CC4)C(=O)O3)c2c1 (centres undefined)	794 nM	
COc1ccc2nccc(C3CN(C4CCN(Cc5ccc6ccccc6n5)CC4)C(=O)O3)c2c1 (centres undefined)	3160 nM	
COc1ccc2nccc(C3CN(C4CCN(Cc5cc6ccccc6[nH]5)CC4)C(=O)O3)c2n1 (centres undefined)	31.6 nM	
COc1ccc2nccc(C3CN(C4CCN(Cc5ccccc5Cl)CC4)C(=O)O3)c2c1 (centres undefined)	> 50100 nM	
COc1ccc2nccc(C3CN(C4CCN(Cc5ccc(Br)cc5)CC4)C(=O)O3)c2c1 (centres undefined)	50.1 nM	
COc1ccc2nccc(C3CN(C4CCCCN(Cc5cc6ccccc6[nH]5)C4)C(=O)O3)c2c1 (centres undefined)	> 50100 nM	
COc1ccc2nccc(C3CN(C4CCN(Cc5ccc(C#N)cc5)CC4)C(=O)O3)c2c1 (centres undefined)	12600 nM	
O=C1OC(c2ccncc2)CN1C1CCN(Cc2cc3ccccc3[nH]2)CC1 (centres undefined)	> 50100 nM	
COc1ccc2nccc(C3CN(C4CCN(Cc5ccc6ccccc6c5)CC4)C(=O)O3)c2c1 (centres undefined)	1260 nM	
COc1ccc2nccc(C3CN(C4CCN(C)CC4)C(=O)O3)c2c1 (centres undefined)	> 50100 nM	
COc1ccc2nccc(C3CN(C4CCN(Cc5cc6ccccc6n5C)CC4)C(=O)O3)c2c1 (centres undefined)	3160 nM	
O=C1OC(c2cnc3ccccc3c2)CN1C1CCN(Cc2cc3ccccc3[nH]2)CC1 (centres undefined)	> 50100 nM	
COc1ccc2nccc(C3CN(CCCNCc4cc5ccccc5[nH]4)C(=O)O3)c2c1 (centres undefined)	1580 nM	
O=C1OC(c2cccc3ccccc23)CN1C1CCN(Cc2cc3ccccc3[nH]2)CC1 (centres undefined)	> 50100 nM	
COc1ccc2nccc(C3CN(CCCN(C)Cc4cc5ccccc5[nH]4)C(=O)O3)c2c1 (centres undefined)	6310 nM	
